Consider two compounds from patent US12215123B2, “Cordycepin-based derivatized compound with anti-tumor effect” (NANJING TECH UNIVERSITY, priority 2022, dated 2025).

Read-outs that look alike come from different tables or passages of the source.

Experiment [1] deals with gastric cancer cell line BGC-823. Description: MTT proliferation, gastric cancer cell line BGC-823. It is filed as cell-based. Particulars: Homo sapiens, read-out: IC50 (μM) in gastric cancer cells, BGC-823. The procedure, abridged: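 Tumour cells in exponential growth were trypsinised, seeded at 2 to 4×10^4 cells/mL, cultured 24 hours, then exposed to compounds for 72 hours. MTT was added for 4 hours, formazan dissolved in DMSO and absorbance read at 570 nm. IC50 came from an S curve of inhibition rate against concentration.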

In experiment [2] the test system is BGC-823 gastric cancer cells. Description: Mouse transplanted gastric cancer model. It is filed as in vivo, C57BL/6j nude mice. The note with it: BGC-823 transplanted mice, intragastric 500 ug/time/animal every day, 18 days; for tumor weight: control 1.73 g. As for the experimental part: (§1) The feeding of the mouse model in the drug evaluation follows that: mice are fed and treated in a laminar flow cabinet, with 5 nude mice in each cage, drinking water and feedstuffs are added once every 3 days, and paddings are replaced once a week; a number of mice kept in each cage is no more than 5, the mice in separate cages are kept in groups as far as possible, and the mice should not be kept in a single cage; the animal management must conform to the relevant national standards on animal feeding management, and the behavioral needs of animals should be concerned at the same time to avoid unnecessary stress; the normal physiological and behavioral needs of animals, such as defecation, urination, constant body temperature maintenance, normal activities, posture adjustment and reproduction are met; good ventilation and dry animals are kept; the animals can access to drinking water and food at will, and supplementation, replacement and cleaning operations are easily carried out; a solid and safe environment is provided to avoid accidents of animals, such as escaping or limb trapping in a gap; the animals are avoided from being damaged by sharp edges or protrusions; and the animals are not disturbed during observation.
A mouse transplanted gastric cancer model was established and a drug was evaluated. 2×10^7 BGC-823 gastric cancer cells were suspended in 100 μL of PBS to be inoculated into an anterior chest wall of C57BL/6j nude mice, disinfection was carried out with 75% ethanol, and the most obvious part of apical impulse was touched with hand to inoculate the cells to a left ventricle in a second intercostal space about 3 mm to the left of the sternum. About one week later, when the transplanted tumor reached about 100 mm^3, the mice were randomly divided into five groups, with 10 mice in each group, comprising a control group, a cordycepin group, and compound 16, compound 18 and compound 24 drug groups respectively. The control group was intragastrically administrated with a nutritional agent such as a corn steep liquor and DMSO as a solvent control every day; the cordycepin group was intragastrically administrated with the cordycepin (500 ug/time/animal) every day under configuration with DMSO; and the compound drug groups were intragastrically administrated with the compounds (500 ug/time/animal) every day under configuration with DMSO. The administration was carried out for 18 consecutive days. Changes of gastric tumor sizes in the five groups of mice were observed every two days, the mice were killed after the experiment, blood and corresponding tissue samples were collected, and tumor bodies were immediately photographed and weighed.

Experiment [3] concerns Hep-1-6 liver cancer cells. Description: Mouse transplanted liver cancer model. It is filed as in vivo, C57BL/6j nude mice. Particulars: Hep-1-6 transplanted mice, intragastric 500 ug/time/animal every other day, 14 days; blank 900 mm^3. As for the experimental part: as §1
A mouse transplanted liver cancer model was established and a drug was evaluated. […]

Experiment [4] concerns small cell lung cancer cell line H446. As to the kind of experiment: MTT proliferation, small cell lung cancer cell line H446. It is filed as cell-based. Particulars: read-out: IC50 (μM) of compounds in small cell lung cancer cells, H446. A digest of the protocol:
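MTT assay: cells seeded at 2 to 4×10^4 cells/mL, grown 24 h, then exposed to compound for 72 h. MTT added for 4 h, formazan dissolved in DMSO and absorbance read at 570 nm; IC50 taken from the S-shaped concentration-inhibition curve.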

By IC50 is commonly meant the midpoint of a concentration-inhibition curve. Turning to `CC(C)OC(=O)C(C)NP(=O)(COC[C@@H]1CC(O)[C@H](n2cnc3c(NC(=O)c4ccncc4)ncnc32)O1)Oc1ccccc1` (stereo partly shown) [Compound 24, isopropyl((((4-hydroxy-5-(6-(isonicotinamide)-9H-purin-9-yl)tetrahydrofuran-2-yl)methoxy)methyl)(phenoxy)phosphoryl)alanine ester], the IC50 in experiment [1] (BGC-823, 72 h) amounted to 0.09 µM; in experiment [4] (Homo sapiens, NCI-H446, 72 h), 17.2 µM. Further, the “tumor weight, times lower than that of the control group” value in experiment [2] is on record as “about 12 times”. The compound also had a tumor weight in experiment [2] of 0.14 g. Further, the tumor volume in experiment [3] is recorded as below 100 mm^3.
Regarding `Nc1ncnc2c1ncn2[C@@H]1O[C@H](CO)C[C@H]1O` [Cordycepin, 3′-deoxyadenosine], the IC50 in experiment [1] (MTT, 72 hours, BGC-823) was 235 µM; in experiment [4] (Homo sapiens, NCI-H446, 72 h, MTT, 72 hours, H446), above 100 µM; in experiment [4] (MTT, 72 hours, H446), 123 µM. Besides, the “tumor weight, times lower than that of the control group” value in experiment [2] is on record as “about 4 times”. The tumor weight in experiment [2] came out at 0.46 g.
